Where only a bound is given, the exact number is not on record here.

The values below come from US20240199624A1, “COMPOUNDS, COMPOSITIONS, AND METHODS” (CHDI Foundation, Inc., priority 2022, published 2024).

What all share (assay type): biochemical
The target of assay [1] is T1, human MutSbeta (Homo sapiens, UniProt P20585+P43246).
T1 construct: Msh2(1-934), Gene ID NP_000242.1; Msh3(1-1137), Gene ID J04810.1
Kind of assay: ADP Glo assay 2.2. To be noted: as 2.1 but buffer with 2 mM GSH. On the procedure:
(§1) ADP Glo assay 2.1: Enzyme human MutSbeta (Msh2(1-934), Gene ID NP_000242.1, Msh3(1-1137), Gene ID J04810.1) with 22 bp biotin-labeled DNA containing a GT-mismatch (purchased from Curia Global, TOP 5′-[…]-3′; BOT 3′-AGTAGCTAGGC - - - CGAAGTCTACC-5′-Biotin) was pre-incubated in assay buffer (25 mM HEPES pH=7.5, 150 mM KCl, 5 mM MgCl2, 5 mM GSH, 0.1% Pluronic F-127, 0.2% Ovalbumin) to allow formation of the enzyme-DNA complex. Plates with spotted compounds in serial dilutions in DMSO (80 nL) were filled with ATP (2 μL, 10 μM final concentration) followed by an incubation of 30 min at RT. Then, enzyme was added (2 μL, 7 nM final concentration) and the reaction was allowed to proceed for 60 min at 37° C. After the ATPase reaction, the commercially available “ADP-Glo Reagent” was added (incubate 40 min at RT) to deplete remaining ATP via the activity of […]. Subsequently, the commercially available “Kinase Detection Reagent” converted ADP to ATP via the activity of PEP and Pyruvate kinase. The ATP was then converted into light by Ultra-Glo Luciferase. The obtained luminescence was proportional to the ADP concentration generated during the initial ATPase reaction. The luminescence signal was measured with an Envision reader, raw data were analyzed towards controls (full reaction=0% inhibition; no reaction in absence of enzyme=100% inhibition) and IC50 curves were analyzed with the inhouse software Aplus.
ADP Glo assay 2.2: A similar protocol was used as in the ADP Glo Assay 2.1 above, except the following assay buffer was used: 25 mM HEPES pH=7.5, 150 mM KCl, 5 mM MgCl2, 2 mM GSH, 0.1% Pluronic F-127, 0.2% Ovalbumin. It is contemplated the solubility of the compounds and/or varying test occasions and/or assay conditions may account for variability of assay results.

Assay [2] concerns the target T1, human MutSbeta. Kind of assay: ADP Glo assay 2.1. Conditions: 10 μM ATP, 7 nM enzyme; buffer with 5 mM GSH, 0.2% Ovalbumin. The procedure: as §1
For orientation: In ADP-Glo the light output rises with the ADP produced.

Assay [3] deals with T1, human MutSbeta. Kind of assay: P33 SPA 1.1. On the procedure: P33 SPA: Enzyme human MutSbeta (Msh2(1-934), Gene ID NP_000242.1, Msh3(1-1137), Gene ID J04810.1) and 22 bp biotin-labeled DNA containing a GT-mismatch (purchased from Curia Global, TOP 5′-[…]-3′; BOT 3′-AGTAGCTAGGC - - - CGAAGTCTACC-5′-Biotin) were pre-incubated at equimolar concentration for 15 min at room temperature (“RT”) in assay buffer (25 mM HEPES pH=7.5, 150 mM KCl, 2 mM MgCl2, 2 mM GSH, 0.01% Tween-20). ATP (10 μL, 2× final concentration of γ-[^33P]-ATP (final 0.1 nM; Hartmann Analytic, FF-301) and cold ATP (final 2 μM)) was added to compounds (400 nL spotted as concentration response in 100% DMSO into wells of an OptiPlate) and pre-incubated for 30 min at RT. Then, enzyme with DNA was added (10 μL, 2× final concentration of 7 nM) and incubated for 60 min at 37° C. in a total volume of 20 μL per well. Decay of [^33P] with a half-life of 25.4 days was corrected by increasing the concentration of the labelled nucleotide with the appropriate factor; all steps with radioactive ATP were conducted behind appropriate shielding. Then, 20 μL of a 1:2 mix of ammonium molybdate (20 mg/mL Ammonium molybdate in 2.4 M HCl) and SPA beads (ProteinA SPA beads from Perkin Elmer Cat #RPNQ0019 at 7.5 mg/mL+1% azide) was added per well and incubated at RT for 2 min. Then, 40 μL of 7 M CsCl and 0.1 M citrate was added per well and incubated for 20 h at RT before measuring on the MicroBeta (top read mode, 1 min per well). For full plate processing, all reagents were transferred with a pipettor (Selma, CyBio) apart from the final reagent (CsCl+citrate) which was added with a dispenser (MultiFlo, BioTek). Data analysis during assay development was done with Prism GraphPad.
P33 SPA 11: For the SPA 1.1 assay, the addition of reagents was reversed, i.e. enzyme was first added to the compounds and pre-incubated followed by ATP addition; thus, the assay was aligned with ADP Glo 1.1 reagent addition order. The assay was repeated under similar conditions, and the results are shown below in Table 5B. It is contemplated the solubility of the compounds and/or varying test occasions may account for variability of assay results.

[4] abbreviates: Table 5A, enzyme first added to compounds, then ATP.
[5] abbreviates: Table 5B, assay repeated under similar conditions.

T1 sequence (P43246 whole entry): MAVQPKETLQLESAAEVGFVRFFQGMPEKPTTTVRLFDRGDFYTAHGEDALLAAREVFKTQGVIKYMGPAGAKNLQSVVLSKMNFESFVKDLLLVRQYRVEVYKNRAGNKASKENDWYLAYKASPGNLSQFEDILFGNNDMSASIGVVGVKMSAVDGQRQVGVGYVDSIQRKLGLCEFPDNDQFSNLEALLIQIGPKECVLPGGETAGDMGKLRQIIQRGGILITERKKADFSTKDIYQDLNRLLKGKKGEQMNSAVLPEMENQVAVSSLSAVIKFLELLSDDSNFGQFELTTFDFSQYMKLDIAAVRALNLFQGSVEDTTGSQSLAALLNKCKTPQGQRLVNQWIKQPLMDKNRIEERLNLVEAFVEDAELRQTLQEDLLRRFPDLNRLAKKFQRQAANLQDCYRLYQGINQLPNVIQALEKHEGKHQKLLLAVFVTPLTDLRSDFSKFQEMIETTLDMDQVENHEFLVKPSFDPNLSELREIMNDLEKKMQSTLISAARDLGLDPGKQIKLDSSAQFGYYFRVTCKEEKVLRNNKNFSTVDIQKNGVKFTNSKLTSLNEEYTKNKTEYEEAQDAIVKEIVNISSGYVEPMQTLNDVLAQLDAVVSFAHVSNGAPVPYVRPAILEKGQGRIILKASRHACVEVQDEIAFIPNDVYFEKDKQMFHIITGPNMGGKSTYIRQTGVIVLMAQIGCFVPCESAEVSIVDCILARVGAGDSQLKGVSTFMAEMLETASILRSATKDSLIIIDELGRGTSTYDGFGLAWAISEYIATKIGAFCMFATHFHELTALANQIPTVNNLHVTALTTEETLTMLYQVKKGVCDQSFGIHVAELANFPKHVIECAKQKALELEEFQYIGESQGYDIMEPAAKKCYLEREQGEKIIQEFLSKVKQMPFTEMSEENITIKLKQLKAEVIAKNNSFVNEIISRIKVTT
T1 sequence (P20585 whole entry): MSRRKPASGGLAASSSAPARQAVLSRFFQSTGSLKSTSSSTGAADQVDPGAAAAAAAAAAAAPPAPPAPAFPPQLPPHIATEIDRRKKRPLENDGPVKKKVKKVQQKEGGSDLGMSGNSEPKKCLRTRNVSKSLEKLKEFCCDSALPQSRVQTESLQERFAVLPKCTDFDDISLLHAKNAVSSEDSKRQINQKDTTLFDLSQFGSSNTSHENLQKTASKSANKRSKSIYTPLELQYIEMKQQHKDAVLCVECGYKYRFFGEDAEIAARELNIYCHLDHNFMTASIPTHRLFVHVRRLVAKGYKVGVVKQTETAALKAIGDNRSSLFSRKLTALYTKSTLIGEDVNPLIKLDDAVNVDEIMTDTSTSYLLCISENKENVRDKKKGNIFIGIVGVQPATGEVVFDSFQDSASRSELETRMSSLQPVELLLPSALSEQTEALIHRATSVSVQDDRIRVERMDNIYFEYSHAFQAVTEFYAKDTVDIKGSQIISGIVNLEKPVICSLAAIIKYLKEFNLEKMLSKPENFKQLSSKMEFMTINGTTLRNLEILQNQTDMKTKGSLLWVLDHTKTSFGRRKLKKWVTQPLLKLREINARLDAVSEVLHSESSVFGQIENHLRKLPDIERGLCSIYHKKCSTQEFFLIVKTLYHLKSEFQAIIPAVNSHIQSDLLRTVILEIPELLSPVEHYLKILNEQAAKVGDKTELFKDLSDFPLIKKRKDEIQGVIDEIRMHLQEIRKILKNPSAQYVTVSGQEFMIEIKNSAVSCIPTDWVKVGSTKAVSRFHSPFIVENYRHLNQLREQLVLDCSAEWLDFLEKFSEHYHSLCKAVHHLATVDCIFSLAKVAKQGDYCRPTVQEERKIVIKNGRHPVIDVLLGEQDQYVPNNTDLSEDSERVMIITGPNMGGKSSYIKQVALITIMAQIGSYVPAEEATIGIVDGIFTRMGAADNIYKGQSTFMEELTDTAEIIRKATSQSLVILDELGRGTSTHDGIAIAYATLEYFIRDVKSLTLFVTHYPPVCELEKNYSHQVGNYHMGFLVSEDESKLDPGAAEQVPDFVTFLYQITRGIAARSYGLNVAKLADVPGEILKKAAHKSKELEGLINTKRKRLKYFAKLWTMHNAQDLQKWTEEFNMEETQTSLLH

By IC50 is commonly meant the concentration that inhibits the measured activity by half. Regarding `Cc1ccc(CNc2nc(N3CCN(C)CC3)nc3nccnc23)cc1C` [Compound 27], the IC50 at human MutSbeta [1] stood at 26 µM; against human MutSbeta [2], 22 µM; on human MutSbeta [3] (setting [4]), 28 µM; against human MutSbeta [3] (setting [5]) it was 18 µM.

As for `Cc1cccc(Nc2nc(N3CCN(C)CC3)nc3nccnc23)c1C` [Compound 39, N-(2,3-dimethylphenyl)-2-(4-methylpiperazin-1-yl)pteridin-4-amine], the IC50 against human MutSbeta [2] is no less than 200 µM; against human MutSbeta [3] (setting [4]) it was 158 µM; at human MutSbeta [3] (setting [5]) it was 36 µM.

On to `Cc1cc(CNc2nc(N3CCN(C)CC3)nc3nccnc23)ccc1F` [Compound 25], for which the IC50 against human MutSbeta [1] is 35 µM; against human MutSbeta [2], 29 µM; at human MutSbeta [3] (setting [4]) it was 20 µM; on human MutSbeta [3] (setting [5]), 24 µM.

For `Cc1ccc(Nc2nc(N3CCN(C)CC3)nc3nccnc23)cc1C(N)=O` [Compound 45], the IC50 on human MutSbeta [1] was 76 µM; against human MutSbeta [2] it was 55 µM; against human MutSbeta [3] (setting [4]), 38 µM; against human MutSbeta [3] (setting [5]), 84 µM.

With `Cc1ccc(Nc2nc(N3CCCN(C)CC3)nc3nccnc23)cc1C` [Compound 23, N-(3,4-dimethylphenyl)-2-(4-methyl-1,4-diazepan-1-yl)pteridin-4-amine], the IC50 against human MutSbeta [2] is no less than 200 µM; at human MutSbeta [3] (setting [4]), 71 µM; at human MutSbeta [3] (setting [5]), 64 µM.

Turning to `CC(=O)Nc1cccc(CNc2nc(N3CCN(C)CC3)nc3nccnc23)c1` [Compound 46], the IC50 at human MutSbeta [1] was 53 µM; against human MutSbeta [2], 38 µM; at human MutSbeta [3] (setting [4]), 104 µM; against human MutSbeta [3] (setting [5]), 120 µM.

Consider `CN1CCN(c2nc(Nc3cccc(C4CC4C(=O)O)c3)c3nccnc3n2)CC1` (single isomer, unassigned) [Compound 48], for which the IC50 at human MutSbeta [1] came to 27 µM; on human MutSbeta [2], 13 µM; on human MutSbeta [3] (setting [4]) it was 12 µM; against human MutSbeta [3] (setting [5]) it was 9 µM.

`CN1CCN(c2nc(NCc3cccc(S(N)(=O)=O)c3)c3nccnc3n2)CC1` [Compound 44]: the IC50 turned out to be 88 µM against human MutSbeta [1] and 71 µM against human MutSbeta [3] (setting [5]).

As for `CCC(=O)Nc1cccc(Nc2nc(N3CCN(C)CC3)nc3nccnc23)c1` [Compound 37], the IC50 against human MutSbeta [1] was found to be 97 µM; at human MutSbeta [2], 71 µM; at human MutSbeta [3] (setting [4]) it was 34 µM; against human MutSbeta [3] (setting [5]), 119 µM.

As to `CN1CCN(c2nc(Nc3cccc(Cl)c3)c3nccnc3n2)CC1` [Compound 33, N-(3-chlorophenyl)-2-(4-methylpiperazin-1-yl)pteridin-4-amine], the concentration for half-maximal inhibition (IC50) on human MutSbeta [1] worked out at 43 µM; against human MutSbeta [2] it was 35 µM; on human MutSbeta [3] (setting [4]), 44 µM; on human MutSbeta [3] (setting [5]), 34 µM.

As for `Cc1cc(CNc2nc(N3CCN(C(C)C)CC3)nc3nccnc23)ccc1F` [Compound 26], the IC50 at human MutSbeta [1] is 95 µM; against human MutSbeta [2], 36 µM; on human MutSbeta [3] (setting [4]) it was 59 µM; at human MutSbeta [3] (setting [5]), 75 µM.

As for `Cc1ccc(Nc2nc(N3CCN(C)CC3)nc3nccnc23)cc1S(N)(=O)=O` [Compound 43], the IC50 on human MutSbeta [1] amounted to 106 µM; against human MutSbeta [3] (setting [5]), 59 µM.

Take `Cc1ccc(Nc2nc(N3CCN(C)[C@@H](C)C3)nc3nccnc23)cc1C` [Compound 31]: the IC50 against human MutSbeta [1] stood at 41 µM; against human MutSbeta [2] it was 19 µM; against human MutSbeta [3] (setting [4]), 25 µM; against human MutSbeta [3] (setting [5]), 45 µM.

Consider `CN1CCN(c2nc(Nc3cccc(F)c3)c3nccnc3n2)CC1` [Compound 34], for which the 50% inhibitory concentration (IC50) was no less than 200 µM against human MutSbeta [2], 43 µM against human MutSbeta [3] (setting [4]) and 90 µM against human MutSbeta [3] (setting [5]).

In the case of `Cc1ccc(Oc2nc(N3CCN(C)CC3)nc3nccnc23)cc1C` [Compound 32], the IC50 was no less than 200 µM against human MutSbeta [2], 118 µM on human MutSbeta [3] (setting [4]) and 47 µM against human MutSbeta [3] (setting [5]).

Take `CCC(=O)Nc1cccc(Nc2nc(N3CCCN(C)CC3)nc3nccnc23)c1` [Compound 35]: the IC50 was no less than 200 µM at human MutSbeta [2], 80 µM at human MutSbeta [3] (setting [4]) and 55 µM against human MutSbeta [3] (setting [5]).

Consider `Cc1cc(CNc2nc(N3CCCN(C)CC3)nc3nccnc23)ccc1F` [Compound 29], for which the values for the half-maximal inhibitory concentration (IC50) against human MutSbeta [2], against human MutSbeta [3] (setting [4]) and against human MutSbeta [3] (setting [5]) were no less than 200 µM, 120 µM and 61 µM, respectively.
